Test results taken from ChEMBL document CHEMBL5728039, “Inhibitors of Bruton's tyrosine kinase and method of their use” (2020).

Target: Tyrosine-protein kinase BTK (Homo sapiens, UniProt Q06187)
Assay: TBD: TBD

Chain of Tyrosine-protein kinase BTK (Q06187 whole entry): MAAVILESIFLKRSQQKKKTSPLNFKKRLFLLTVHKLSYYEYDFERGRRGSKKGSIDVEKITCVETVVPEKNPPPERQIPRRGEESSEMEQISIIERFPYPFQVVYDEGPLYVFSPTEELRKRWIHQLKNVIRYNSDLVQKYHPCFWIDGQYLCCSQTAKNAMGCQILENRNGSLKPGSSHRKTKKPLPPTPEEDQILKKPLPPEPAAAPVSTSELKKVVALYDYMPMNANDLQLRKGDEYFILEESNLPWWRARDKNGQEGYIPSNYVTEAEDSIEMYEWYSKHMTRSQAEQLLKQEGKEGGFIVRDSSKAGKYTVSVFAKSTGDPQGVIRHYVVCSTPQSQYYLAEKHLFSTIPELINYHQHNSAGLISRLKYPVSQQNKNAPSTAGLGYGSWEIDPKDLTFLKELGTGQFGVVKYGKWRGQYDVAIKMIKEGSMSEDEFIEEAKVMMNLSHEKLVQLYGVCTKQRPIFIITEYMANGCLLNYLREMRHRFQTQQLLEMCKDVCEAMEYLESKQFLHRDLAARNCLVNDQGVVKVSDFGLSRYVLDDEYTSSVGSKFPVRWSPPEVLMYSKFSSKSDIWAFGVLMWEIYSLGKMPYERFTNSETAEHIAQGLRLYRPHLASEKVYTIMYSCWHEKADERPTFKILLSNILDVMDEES

Point of comparison: CN1CC(NC(=O)c2sc3nccc4c3c2NC(=O)N4c2ccc(Oc3ccccc3)cc2)CC1=O (stereo not drawn), IC50 398 nM. Against it:
- C=CC(=O)N1CCC[C@@H](NC(=O)c2sc3nccc4c3c2NC(=O)N4c2ccc(Oc3cccnn3)cc2)C1 — higher, > 1000 nM
- Cc1cc(Oc2ccccc2)ccc1N1C(=O)Nc2c(C(=O)N[C@@H]3CCCOC3)sc3nccc1c23 — 16-fold lower, 25.1 nM
